What was measured:
Daphnia magna = assay: 48 h LC50 (-log10 mol/L); higher = more toxic
Tetrahymena pyriformis = assay: 48 h IGC50 (-log10 mol/L); higher = more toxic
Pimephales promelas = assay: 96 h LC50 (-log10 mol/L); higher = more toxic

| Structure (SMILES) | 48 h LC50 (-log10 mol/L) (Daphnia magna) | 48 h IGC50 (-log10 mol/L) (Tetrahymena pyriformis) | 96 h LC50 (-log10 mol/L) (Pimephales promelas) |
| --- | --- | --- | --- |
| CCC(Cl)Cl | 3.63 | – | – |
| COCC(C)OC(C)=O (stereo unspecified) | 2.51 | – | – |
| Cc1nc(N(C)C)nc(OC(=O)N(C)C)c1C | 7.04 | – | – |
| NC(=O)N/N=C/c1ccc([N+](=O)[O-])o1 | 3.84 | – | – |
| O[C@@H](CS)[C@@H](O)CS | 3.76 | – | – |
| CC(C)CCCCCCCCCCNCCCCCCCCCCC(C)C | 6.54 | – | – |
| CCC(CC)Nc1c([N+](=O)[O-])cc(C)c(C)c1[N+](=O)[O-] | 3.73 | – | – |
| CC(C)(C)CC(C)(C)c1ccc(O)cc1 | 6.36 | – | – |
| C/C=C(\C)C(=O)O[C@H]1C[C@@H](OC(C)=O)[C@@]2(C(=O)OC)CO[C@H]3[C@@H](O)[C@@](C)([C@]45O[C@@]4(C)[C@H]4C[C@@H]5O[C@@H]5OC=C[C@@]54O)[C@H]4[C@]1(CO[C@]4(O)C(=O)OC)[C@@H]32 | 6.06 | – | – |
| O=C1CN=C(c2ccccc2Cl)c2cc([N+](=O)[O-])ccc2N1 | 4.02 | – | – |
| FCC(F)(F)F | 2.02 | – | – |
| Cc1cc(C)cc(OCC2CNC(=O)O2)c1 (stereo unspecified) | 3.47 | – | – |
| CC(C)(C)NC(=O)[C@@H]1C[C@@H]2CCCC[C@@H]2CN1C[C@@H](O)[C@H](Cc1ccccc1)NC(=O)[C@H](CC(N)=O)NC(=O)c1ccc2ccccc2n1 | 4.27 | – | – |
| CC1(C)C(C=C(Cl)Cl)C1C(=O)OCc1cccc(Oc2ccccc2)c1 (stereo unspecified) | 8.07 | – | – |
| c1cc2ccc3cccc4ccc(c1)c2c34 | 6.17 | – | – |
| O=C(NC(=O)c1c(F)cccc1F)Nc1ccc(Cl)cc1 | 7.8 | – | – |
| CCCCCCCCCC | 5.3 | – | – |
| CC(C)C1OCC=CCO1 | 2.27 | – | – |
| CN(C)C(=S)SSC(=S)N(C)C | 6.06 | – | – |
| CCCC(=O)Nc1ccc(OCC(O)CNC(C)C)c(C(C)=O)c1 (stereo unspecified) | 3.82 | – | – |
| CBr | 4.63 | – | – |
| ClC1=C(Cl)[C@]2(Cl)[C@@H]3[C@@H](Cl)[C@H]4O[C@H]4[C@@H]3[C@@]1(Cl)C2(Cl)Cl | 6.21 | – | – |
| CN(C)[C@@H]1C(=O)C(C(N)=O)=C(O)[C@@]2(O)C(=O)C3=C(O)c4c(O)cccc4[C@@](C)(O)[C@H]3C[C@@H]12 | 6.43 | – | – |

| Structure (SMILES) | 48 h LC50 (-log10 mol/L) (Daphnia magna) | 48 h IGC50 (-log10 mol/L) (Tetrahymena pyriformis) | 96 h LC50 (-log10 mol/L) (Pimephales promelas) |
| --- | --- | --- | --- |
| CCOc1cc(NC(C)=O)ccc1C(=O)OC | 3.07 | – | – |
| COc1ccccc1OCCNCC(O)COc1cccc2[nH]c3ccccc3c12 (stereo unspecified) | 5.13 | – | – |
| CC(C)NCC(O)COc1ccc(CC(N)=O)cc1 (stereo unspecified) | 3.9 | – | – |
| CC(C)(C)NC(=O)[C@H]1CC[C@H]2[C@@H]3CC[C@H]4NC(=O)C=C[C@]4(C)[C@H]3CC[C@]12C | 4.25 | – | – |
| CN1CCCC1=O | 4.91 | – | – |
| Cc1cc(Cl)cc(Cl)c1O | 5.63 | – | – |
| CC(OC(=O)c1cc(Oc2ccc(C(F)(F)F)cc2Cl)ccc1[N+](=O)[O-])C(=O)O (stereo unspecified) | 4.5 | – | – |
| Cc1ccc(Cl)cc1Cl | 5.42 | – | – |
| Clc1cc(Cl)c(-c2cc(Cl)c(Cl)cc2Cl)cc1Cl | 8.44 | – | – |
| COc1cccc(N)c1 | 5.64 | – | – |
| Cc1cn([C@H]2C=C[C@@H](CO)O2)c(=O)[nH]c1=O | 2.36 | – | – |
| CCN(CC)C(=S)SSC(=S)N(CC)CC | 5.98 | – | – |
| Cc1cccc([N+](=O)[O-])c1C | 4.56 | – | – |
| CC(C)(C)NCC(O)COc1cccc2c1C[C@H](O)[C@H](O)C2 (stereo partly specified) | 3.28 | – | – |
| N#Cc1c(Cl)c(Cl)c(Cl)c(C#N)c1Cl | 6.21 | – | – |
| CN1CSC(=S)N(C)C1 | 5.47 | – | – |
| O=CCCCC=O | 3.79 | – | – |
| Cc1ncc2n1-c1ccc(Cl)cc1C(c1ccccc1F)=NC2 | 6.21 | – | – |
| COc1ccccc1O | 3.68 | – | – |
| O=C(O)/C=C\C(=O)O | 2.76 | – | – |
| CCCOC(=O)NCCCN(C)C | 3.25 | – | – |
| CC(=O)OCC(CCn1cnc2cnc(N)nc21)COC(C)=O | 2.59 | – | – |
| Clc1ccc(Cl)c(-c2cc(Cl)c(Cl)cc2Cl)c1 | 7.51 | – | – |

| Structure (SMILES) | 48 h LC50 (-log10 mol/L) (Daphnia magna) | 48 h IGC50 (-log10 mol/L) (Tetrahymena pyriformis) | 96 h LC50 (-log10 mol/L) (Pimephales promelas) |
| --- | --- | --- | --- |
| CC(Cc1ccc(C(C)(C)C)cc1)CN1CCCCC1 (stereo unspecified) | 5.72 | – | – |
| CC(C)(C)C(=O)Cl | 2.58 | – | – |
| CCCS | 6.1 | – | – |
| C1CCCC1 | 3.81 | – | – |
| Brc1ccc(Oc2cc(Br)c(Br)cc2Br)c(Br)c1 | 7.02 | – | – |
| CN(C)C(=S)N(C)C | 2.23 | – | – |
| Cc1cc(Cl)ccc1OCC(=O)O | 3.05 | – | – |
| CNC(=S)N(C)C | 2.19 | – | – |
| NC[C@@H]1O[C@H](O[C@H]2[C@@H](O)[C@H](O[C@@H]3[C@@H](O)[C@H](N)C[C@H](N)[C@H]3O[C@H]3O[C@H](CO)[C@@H](O)[C@H](O)[C@H]3N)O[C@@H]2CO)[C@H](N)[C@@H](O)[C@@H]1O | 3.09 | – | – |
| COP(=O)(NC(C)=O)SC (stereo unspecified) | 4.11 | – | – |
| c1ccc2c(c1)cc1ccc3cccc4ccc2c1c34 | 6 | – | – |
| Cc1ccc(C(C)C)cc1 | 4.32 | – | – |
| C=C[C@]1(C)C[C@@H](OC(=O)CSC2C[C@H]3CC[C@@H](C2)N3C)[C@]2(C)[C@H](C)CC[C@]3(CCC(=O)[C@H]32)[C@@H](C)[C@@H]1O (stereo partly specified) | 4.11 | – | – |
| CC(C)CCCCCCCOP(=O)(Oc1ccccc1)Oc1ccccc1 | 7.1 | – | – |
| Nc1cc(Cl)c(Cl)cc1Cl | 4.76 | – | – |
| Cc1cc(C)c(C)cc1C | 5.45 | – | – |
| CCCCNC(=O)OCC#CI | 6.85 | – | – |
| COC(=O)c1ccccc1C(=O)OC | 3.77 | – | – |
| CC(C)(C)[C@H](O)[C@H](Cc1ccc(Cl)cc1)n1cncn1 | 4.01 | – | – |
| O=[N+]([O-])c1ccc(Oc2c(Cl)cc(Cl)cc2Cl)cc1 | 5.88 | – | – |
| COc1cc(Cl)c(Cl)c(Cl)c1O | 5.37 | – | – |
| CN(C)C(N)=S | 3.39 | – | – |
| CC(=O)Oc1c(C)cc(OCC(O)CNC(C)C)c(C)c1C (stereo unspecified) | 3.92 | – | – |

| Structure (SMILES) | 48 h LC50 (-log10 mol/L) (Daphnia magna) | 48 h IGC50 (-log10 mol/L) (Tetrahymena pyriformis) | 96 h LC50 (-log10 mol/L) (Pimephales promelas) |
| --- | --- | --- | --- |
| O=[N+]([O-])c1ccc(Cl)c([N+](=O)[O-])c1 | 5.4 | – | – |
| O=C1CNC(=S)N1 | 3.77 | – | – |
| BrC1CCCCC1 | 3.89 | – | – |
| COCC(=O)N(c1c(C)cccc1C)[C@H](C)C(=O)OC | 3.54 | – | – |
| N#CSCSC#N | 6.25 | – | – |
| CCCCN(CC)C(=O)SCCC | 4.47 | – | – |
| Fc1ccc([C@@]2(Cn3cncn3)O[C@@H]2c2ccccc2Cl)cc1 | 4.58 | – | – |
| O=S(=O)(c1ccc(Cl)cc1)c1cc(Cl)c(Cl)cc1Cl | 4.71 | – | – |
| Cc1c(COC(=O)[C@@H]2[C@H](/C=C(\Cl)C(F)(F)F)C2(C)C)cccc1-c1ccccc1 | 8.11 | – | – |
| O=S1OC[C@@H]2[C@H](CO1)[C@]1(Cl)C(Cl)=C(Cl)[C@@]2(Cl)C1(Cl)Cl (stereo partly specified) | 6.08 | – | – |
| CC1=CC(=O)C(C)=C(C)C1=O | 5 | – | – |
| O=C(O)c1cc(Oc2ccc(C(F)(F)F)cc2Cl)ccc1[N+](=O)[O-] | 4.26 | – | – |
| COC(=O)c1ccc(Cl)cc1 | – | 3.42 | 4.16 |
| CCOC(=O)CCCCC(=O)OCC | – | 2.87 | 4.05 |
| CC(C)=NO | – | 1.75 | 2.12 |
| CC(O)CCl (stereo unspecified) | – | 1.51 | 2.59 |
| Oc1ccc(Oc2ccccc2)cc1 | – | 4.36 | 4.58 |
| O=Cc1ccccc1[N+](=O)[O-] | – | 3.17 | 4.02 |
| NC(=O)c1ccccc1 | – | 2.09 | 2.26 |
| CCC#N | – | 1.03 | 1.56 |
| CCC(C)=NO | – | 1.93 | 2.01 |
| CC(=O)C(C)(C)C | – | 1.56 | 3.06 |
| N#Cc1ccccn1 | – | 2.17 | 2.16 |

| Structure (SMILES) | 48 h LC50 (-log10 mol/L) (Daphnia magna) | 48 h IGC50 (-log10 mol/L) (Tetrahymena pyriformis) | 96 h LC50 (-log10 mol/L) (Pimephales promelas) |
| --- | --- | --- | --- |
| Oc1ccc(Cl)cc1O | – | 4.06 | 4.96 |
| CCCCCC(=O)OCC | – | 3.06 | 4.21 |
| O=[N+]([O-])c1ccc(Oc2ccccc2)cc1 | – | 4.58 | 4.91 |
| O=[N+]([O-])c1cccc2ccccc12 | – | 4 | 4.53 |
| NC(=O)c1ccccc1N | – | 2.13 | 2.54 |
| COC(=O)c1ccc(Cl)cc1[N+](=O)[O-] | – | 3.82 | 3.9 |
| Cc1ccc(N)cc1N | – | 2.34 | 1.94 |
| O=[N+]([O-])c1cccc(Cl)c1 | – | 3.73 | 3.93 |
| COc1ccc(C(C)=O)c(O)c1 | – | 3.55 | 3.38 |
| O=Cc1ccc([N+](=O)[O-])cc1 | – | 3.2 | 4.17 |
| CCOC(=O)c1ccc(N)cc1 | – | 3.7 | 3.67 |
| Oc1ccccc1O | – | 3.75 | 4.29 |
| Nc1ccc(Br)cc1 | – | 4.01 | 3.56 |
| NC(=O)c1ccccc1O | – | 2.76 | 3.13 |
| CCCCCCBr | – | 3.94 | 4.68 |
| Oc1cccc(O)c1 | – | 2.35 | 3.3 |
| Clc1cc(Cl)c(Cl)cc1Cl | – | 5 | 5.83 |
| Cc1cccc(Cl)c1C#N | – | 3.46 | 4 |
| CCCCCCCBr | – | 4.49 | 5.09 |

Reference: EPA's aquatic toxicity sets
